PubChem BioAssay AID330 (DTP/NCI, 2004)
Where “and” joins values, the source holds several entries; their conditions need not be identical. Equal values may be shown once. Inconclusive results and toxic doses are left out. Rule for the calls: active = survival T/C of 150% or more; inactive = T/C below 125% in these data.

Tested on: P388 leukemia ip, CD2F1 mice, survival T/C
Assay: NCI In Vivo Anticancer Drug Screen. Data for tumor model P388 Leukemia (intraperitoneal) in CD2F1 (CDF1) mice
Settings: endpoint: median survival time, higher = longer survival
In short: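 Mice carrying the transplanted tumor received test compound or vehicle. Survival was recorded in each group, and the value is the treated-group measurement divided by that of the vehicle-treated control group.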

[1] = dose: 25.0 mg/kg/injection, schedule: Q01DX009 (ip), vehicle: other
[2] = dose: 50.0 mg/kg/injection, schedule: Q01DX009 (ip), vehicle: other
[3] = dose: 100.0 mg/kg/injection, schedule: Q01DX009 (ip), vehicle: other
[4] = dose: 200.0 mg/kg/injection, schedule: Q01DX009 (ip), vehicle: other
[5] = dose: 50.0 mg/kg/injection, schedule: Q01DX009 (ip), vehicle: saline
[6] = dose: 100.0 mg/kg/injection, schedule: Q01DX009 (ip), vehicle: saline
[7] = dose: 200.0 mg/kg/injection, schedule: Q01DX009 (ip), vehicle: saline
[8] = dose: 50.0 mg/kg/injection, schedule: Q01DX005 (ip), vehicle: Klucel (hydroxypropylcellulose) (HPC)
[9] = dose: 100.0 mg/kg/injection, schedule: Q01DX005 (ip), vehicle: Klucel (hydroxypropylcellulose) (HPC)
[10] = dose: 200.0 mg/kg/injection, schedule: Q01DX005 (ip), vehicle: Klucel (hydroxypropylcellulose) (HPC)
[11] = dose: 50.0 mg/kg/injection, schedule: Q01DX009 (ip), vehicle: saline with Tween-80
[12] = dose: 100.0 mg/kg/injection, schedule: Q01DX009 (ip), vehicle: saline with Tween-80
[13] = dose: 200.0 mg/kg/injection, schedule: Q01DX009 (ip), vehicle: saline with Tween-80
[14] = dose: 60.0 mg/kg/injection, schedule: Q01DX005 (ip), vehicle: saline with Tween-80
[15] = dose: 120.0 mg/kg/injection, schedule: Q01DX005 (ip), vehicle: saline with Tween-80
[16] = dose: 240.0 mg/kg/injection, schedule: Q01DX005 (ip), vehicle: saline with Tween-80
[17] = dose: 50.0 mg/kg/injection, schedule: Q04DX003 (ip), vehicle: saline with Tween-80
[18] = dose: 100.0 mg/kg/injection, schedule: Q04DX003 (ip), vehicle: saline with Tween-80
[19] = dose: 100.0 mg/kg/injection, schedule: Q04DX003 (ip), vehicle: Klucel (hydroxypropylcellulose) (HPC)
[20] = dose: 200.0 mg/kg/injection, schedule: Q04DX003 (ip), vehicle: Klucel (hydroxypropylcellulose) (HPC)
[21] = dose: 400.0 mg/kg/injection, schedule: Q04DX003 (ip), vehicle: Klucel (hydroxypropylcellulose) (HPC)
[22] = dose: 60.0 mg/kg/injection, schedule: Q01DX005 (ip), vehicle: Klucel (hydroxypropylcellulose) (HPC)
[23] = dose: 120.0 mg/kg/injection, schedule: Q01DX005 (ip), vehicle: Klucel (hydroxypropylcellulose) (HPC)
[24] = dose: 240.0 mg/kg/injection, schedule: Q01DX005 (ip), vehicle: Klucel (hydroxypropylcellulose) (HPC)
[25] = dose: 400.0 mg/kg/injection, schedule: Q01DX009 (ip), vehicle: saline with Tween-80
[26] = dose: 200.0 mg/kg/injection, schedule: Q04DX003 (ip), vehicle: saline with Tween-80

Measured: T/C

O=NN(c1cccc(C(F)(F)F)c1)c1ccccn1
inactive: [1] 100 % of control | [2] 108 % of control | [3] 106 % of control | [4] 104 % of control | dose: 400.0 mg/kg/injection, schedule: Q01DX009 (ip), vehicle: other 108 % of control

NOCc1cccc(C(F)(F)F)c1
inactive: dose: 75.0 mg/kg/injection, schedule: Q01DX009 (ip), vehicle: saline with Tween-80 87 % of control | dose: 150.0 mg/kg/injection, schedule: Q01DX009 (ip), vehicle: saline with Tween-80 91 % of control | dose: 300.0 mg/kg/injection, schedule: Q01DX009 (ip), vehicle: saline with Tween-80 91 % of control

CN(C)C1=NN(Cc2ccccc2)C(=O)C1
inactive: [5] 105 % of control | [6] 103 % of control | [7] 96 % of control

C=C1C(O)C2OC3(CCC(/C=C/C(C)C4CC5(C)SC5C5(OC(CC(C)(O)C(=O)O)CCC5O)O4)O3)CCC2OC1C(O)CC(C)C1OC2(CCCCO2)CCC1C (centres undefined)
inactive: dose: 1.87 micrograms/kg/injection, schedule: Q01DX005 (ip), vehicle: saline + alcohol 102 % of control and 103 % of control | dose: 3.75 micrograms/kg/injection, schedule: Q01DX005 (ip), vehicle: saline + alcohol 103 % of control and 120 % of control and 93 % of control | dose: 7.5 micrograms/kg/injection, schedule: Q01DX005 (ip), vehicle: saline + alcohol 100 % of control and 103 % of control | dose: 15.0 micrograms/kg/injection, schedule: Q01DX005 (ip), vehicle: saline + alcohol 111 % of control

O=C1C=C(N2C3C4CCC(C4)C32)C(=O)C=C1c1ccccc1 (centres undefined)
inactive: dose: 100.0 mg/kg/injection, schedule: Q01DX001 (ip), vehicle: other 102 % of control | dose: 200.0 mg/kg/injection, schedule: Q01DX001 (ip), vehicle: other 109 % of control | dose: 400.0 mg/kg/injection, schedule: Q01DX001 (ip), vehicle: other 111 % of control

N#CCc1c(-c2ccccc2)c(-c2ccccc2)c2n1CCC2
inactive: [8] 98 % of control | [9] 99 % of control | [10] 96 % of control

COC(=O)C1(C)CCCC2(C)c3cc(OC)ccc3C(=O)C(Br)C12 (centres undefined)
inactive: [11] 103 % of control | [12] 100 % of control | [13] 112 % of control

CN(C)c1nc(-c2ccccc2)c(Cc2ccccc2)c(=O)o1
inactive: [14] 99 % of control | [15] 92 % of control | [16] 89 % of control

Cc1ccc(S(=O)(=O)NCC(Cl)C#N)cc1 (centres undefined)
inactive: [8] 105 % of control | [9] 106 % of control | [10] 103 % of control | dose: 400.0 mg/kg/injection, schedule: Q01DX005 (ip), vehicle: Klucel (hydroxypropylcellulose) (HPC) 102 % of control

Cc1ccc2c(c1)CN(C)c1ccc(C)cc1CN2C
inactive: [14] 98 % of control | [15] 100 % of control | [16] 98 % of control

CCOC(=O)NNS(=O)(=O)CCC(NC(=O)OCc1ccccc1)C(=O)OCc1ccccc1 (centres undefined)
inactive: dose: 12.5 mg/kg/injection, schedule: Q01DX009 (ip), vehicle: other 96 % of control | [1] 104 % of control | [2] 104 % of control | [3] 104 % of control | [4] 104 % of control

Cc1cc(C)c2c(c1N)C(=O)CCO2
inactive: dose: 7.5 mg/kg/injection, schedule: Q01DX005 (ip), vehicle: saline with Tween-80 96 % of control | dose: 15.0 mg/kg/injection, schedule: Q01DX005 (ip), vehicle: saline with Tween-80 100 % of control | dose: 30.0 mg/kg/injection, schedule: Q01DX005 (ip), vehicle: saline with Tween-80 102 % of control

O=C(/C=C/C(=O)Nc1ccc(F)cc1F)Nc1ccc(F)cc1F
inactive: [14] 94 % of control and 95 % of control | [15] 98 % of control | [16] 104 % of control and 97 % of control

O=C1CCC(O)=C1C1=NCCCC1
inactive: dose: 100.0 mg/kg/injection, schedule: Q04DX002 (ip), vehicle: saline with Tween-80 94 % of control | dose: 200.0 mg/kg/injection, schedule: Q04DX002 (ip), vehicle: saline with Tween-80 108 % of control | dose: 400.0 mg/kg/injection, schedule: Q04DX002 (ip), vehicle: saline with Tween-80 101 % of control

CCC(=O)Nc1cc(Cl)cc2[nH]c(C)nc12
inactive: [11] 110 % of control | [12] 99 % of control | [13] 102 % of control

Cc1cn2c(n1)Nc1sc3c(c1C2)CCCC3
inactive: [14] 101 % of control | [15] 103 % of control | [16] 100 % of control

Nc1nc(N)c2ncn(-c3ccc(Cl)c(Cl)c3)c2n1
inactive: dose: 50.0 mg/kg/injection, schedule: Q01DX005 (ip), vehicle: saline with Tween-80 101 % of control | dose: 100.0 mg/kg/injection, schedule: Q01DX005 (ip), vehicle: saline with Tween-80 97 % of control | dose: 200.0 mg/kg/injection, schedule: Q01DX005 (ip), vehicle: saline with Tween-80 106 % of control

NC(Cc1cccc(F)c1)c1nn[nH]n1 (centres undefined)
inactive: [17] 100 % of control | [18] 93 % of control

O=[N+]([O-])/C=C/c1ccccc1
inactive: dose: 5.0 mg/kg/injection, schedule: Q01DX009 (ip), vehicle: saline sonified 100 % of control | dose: 10.0 mg/kg/injection, schedule: Q01DX009 (ip), vehicle: saline sonified 100 % of control | dose: 20.0 mg/kg/injection, schedule: Q01DX009 (ip), vehicle: saline sonified 100 % of control

CCOC(=O)C1CCCN(C)C1 (centres undefined)
inactive: [19] 104 % of control | [20] 100 % of control | [21] 100 % of control

Cc1ccc(S(=O)(=O)C23N=NC(C)(C)C2C2CCC3C2)cc1 (centres undefined)
inactive: [22] 102 % of control | [23] 104 % of control | [24] 102 % of control

COc1ccc(C2OCOCC2C)cc1 (centres undefined)
inactive: dose: 25.0 mg/kg/injection, schedule: Q01DX009 (ip), vehicle: saline with Tween-80 103 % of control | [11] 100 % of control | [12] 103 % of control | [13] 101 % of control | [25] 95 % of control

CN(C)c1ccc(/C=C/c2ccnc3ccc4ccccc4c23)cc1
inactive: [11] 98 % of control | [12] 100 % of control | [13] 110 % of control

CCOC(=O)C(C=O)(NC(=O)c1ccccc1)OCC (centres undefined)
inactive: [18] 95 % of control | [26] 90 % of control | dose: 400.0 mg/kg/injection, schedule: Q04DX003 (ip), vehicle: saline with Tween-80 95 % of control

CCOP(=O)(OCC)Oc1c(OC)cc(C2OCCO2)cc1OC
inactive: [5] 103 % of control | [6] 103 % of control | [7] 117 % of control

Nc1ccc(C(=O)O)c(C(=O)O)c1
inactive: [11] 100 % of control | [17] 91 % of control | [12] 104 % of control | [18] 91 % of control | [13] 100 % of control | [26] 91 % of control

CS(=O)(=O)OC1COCC1OS(C)(=O)=O (centres undefined)
inactive: dose: 100.0 mg/kg/injection, schedule: Q01DX001 (ip), vehicle: Klucel (hydroxypropylcellulose) (HPC) 95 % of control | [19] 99 % of control | dose: 200.0 mg/kg/injection, schedule: Q01DX001 (ip), vehicle: Klucel (hydroxypropylcellulose) (HPC) 95 % of control | [20] 100 % of control | dose: 400.0 mg/kg/injection, schedule: Q01DX001 (ip), vehicle: Klucel (hydroxypropylcellulose) (HPC) 100 % of control | [21] 107 % of control

CN(CCO)C1CC(C)(C)N(O)C(C)(C)C1
inactive: dose: 60.0 mg/kg/injection, schedule: Q01DX005 (ip), vehicle: saline 96 % of control | dose: 120.0 mg/kg/injection, schedule: Q01DX005 (ip), vehicle: saline 100 % of control | dose: 240.0 mg/kg/injection, schedule: Q01DX005 (ip), vehicle: saline 100 % of control

N#C/C(=C\c1cccs1)c1ccccc1
inactive: [11] 102 % of control | [12] 103 % of control | [13] 100 % of control | [25] 105 % of control

Cc1cccnc1OCC(=O)O
inactive: [22] 100 % of control and 93 % of control | [23] 103 % of control and 90 % of control | [24] 100 % of control and 92 % of control
